We go through 17 compounds from patent publication US10059669B2, “2-amino-3,5-difluoro-3,6-dimethyl-6-phenyl-3,4,5,6-tetrahydropyridines as BACE1 inhibitors for treating alzheimer's disease” (H. Lundbeck A/S, priority 2014, dated 2018).

In one data set the test system is P-gp (MDR1). The data set can be described thus: MDCK-MDR1 assay (permeability, efflux ratio). To be noted: dog, Papp BA/Papp AB, 60-minute incubation, Pgp substrate when ≥2. Type of data set: in vitro ADME. As for the experimental part:
The permeability of the test compounds was assessed in MDCK-MDR1 cells that were cultured to confluency (4-6 days) in a 96 transwell plate. Test compounds were diluted with the transport buffer (HBSS+1% BSA) to a concentration of 0.5 μM and applied to the apical or basolateral side of the cell monolayer. Permeation of the test compounds from A to B direction or B to A direction was determined in triplicate over a 60-minute incubation time at 37° C. and 5% CO2 with a relative humidity of 95%. Test compounds were quantified by LC-MS/MS analysis based on the peaks area ratios of analyte/IS in both the receiver and donor wells of the transwell plate.
The apparent permeability coefficient Papp (cm/s) was calculated using the equation: Papp=(dCr/dt)×Vr/(A×C0)
Where dCr/dt is the cumulative concentration of compound in the receiver chamber as a function of time (M/s); Vr is the solution volume in the receiver chamber (0.05 mL on the apical side; 0.25 mL on the basolateral side); A is the surface area for the transport, i.e. 0.0804 cm^2 for the area of the monolayer; C0 is the initial concentration in the donor chamber (VIM).
Compounds are classified Pgp substrates when efflux ratio (Papp BA/Papp AB) is ≥2.

In data set [1] the target is T1, BACE1 (Homo sapiens (Human), UniProt P56817). The data set can be described thus: BACE1 binding assay (SPA-based radioligand binding). The following applies: pH 4.5, 10 nM radioligand, Ki calculated from IC50. As for the experimental part: The binding assay was performed as SPA-based assay using a biotinylated form of human BACE1 recombinantly expressed and subsequently purified from Freestyle HEK293 cells. The binding assay was run in a 50 mM sodium acetate buffer, pH 4.5 containing 50 mM NaCl and 0.03% Tween-20 in white clear bottom 384 plates (Corning #3653). 10 nM (final concentration) radioligand ([^3H]—N-((1S,2R)-1-benzyl-3-cyclopropylamino-2-hydroxy-propyl)-5-(methanesulfonyl-methyl-amino)-N—((R)-1-phenyl-ethyl)-isophthalamide) (TRQ11569 purchased from GE Healthcare) was mixed with test compound at a given concentration, 6 nM (final concentration) human BACE1 and 25 μg Streptavidin coated PVT core SPA beads (RPNQ0007, GE Healthcare Life Sciences) in a total volume of 40 μl. Several concentrations of each test compound were tested in the assay for IC50 determination. The plates were incubated for one hour at room temperature and counted in a Wallac Trilux counter. Total and non-specific binding were determined using buffer and 1 μM (final concentration) of the high affinity BACE1 reference inhibitor (S)-6-[3-chloro-5-(5-prop-1-ynyl-pyridin-3-yl)-thiophen-2-yl]-2-imino-3,6-dimethyl-tetrahydro-pyrimidin-4-one, respectively. For each test compound, a IC50 value (the concentration mediating 50% inhibition of the specific binding of the radioligand) was determined from concentration-response curve and used to calculate the Ki from the equation Ki=IC50/(1+L/Kd), where L and Kd are the final concentration of the radioligand used in the assay and the dissociation constant of the radioligand, respectively. The Kd of the radioligand was determined from saturation binding experiments.

Data set [2] addresses T1, BACE1. The data set can be described thus: BACE1 efficacy assay (FRET-based, commercial BACE1 kit). In kind it is biochemical. The following applies: 10 μM test compound. Here is the method:
The efficacy assay was performed as a FRET-based assay using a commercially available BACE1 kit (Life Technologies, P2985). 2 μl test compound at 10 μM (final concentration) and 15 μl BACE1 enzyme from the kit (final concentration 3 nM) were preincubated for 15 minutes at room temperature before addition of 15 μl of substrate from the kit (250 nM final concentration) and incubated for additional 90 minutes at room temperature. The assay plate was subsequently read in a Pherastar (Ex540/Em590). The enzyme activity observed in presence of test compound were normalized to the enzyme activity observed in presence of buffer and 10 μM (final concentration) of the high affinity BACE1 reference inhibitor (S)-6-[3-Chloro-5-(5-prop-1-ynyl-pyridin-3-yl)-thiophen-2-yl]-2-imino-3,6-dimethyl-tetra-hydropyrimidin-4-one, respectively. The efficacy of the test compounds was evaluated at 10 μM (final concentration) and defined as the percent inhibition of the enzyme activity using the equation % inhibition=100%−normalized enzyme activity in percent.

T1 sequence (P56817 46-501): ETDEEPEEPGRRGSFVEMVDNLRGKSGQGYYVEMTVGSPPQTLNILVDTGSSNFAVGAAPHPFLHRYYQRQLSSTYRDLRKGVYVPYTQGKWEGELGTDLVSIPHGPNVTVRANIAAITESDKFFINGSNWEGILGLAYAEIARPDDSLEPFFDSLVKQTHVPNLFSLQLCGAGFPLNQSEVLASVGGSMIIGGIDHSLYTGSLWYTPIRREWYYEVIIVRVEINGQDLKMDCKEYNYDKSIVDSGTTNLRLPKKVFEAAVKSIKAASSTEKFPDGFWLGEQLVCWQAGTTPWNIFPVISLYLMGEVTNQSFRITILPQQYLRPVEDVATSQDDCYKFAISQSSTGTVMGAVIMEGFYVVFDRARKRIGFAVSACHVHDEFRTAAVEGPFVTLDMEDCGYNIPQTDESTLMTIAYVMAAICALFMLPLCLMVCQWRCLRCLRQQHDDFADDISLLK

The term efflux ratio denotes a quotient of directional permeabilities that is used to spot active efflux. The term Ki denotes the dissociation constant of the complex between target and ligand, obtained from inhibition or displacement. What is called inhibition is the drop in the measured response relative to a control, in per cent. On to `C[C@]1(F)C[C@H](F)[C@@](C)(c2cc(NC(=O)c3ccc(F)cn3)ccc2F)N=C1N` [Compound 1, N-(3-((2R,3S,5S)-6-Amino-3,5-difluoro-2,5-dimethyl-2,3,4,5-tetrahydropyridin-2-yl)-4-fluorophenyl)-5-fluoropicolinamide], for which the efflux ratio at 60 min, 0.5 μM in the data set on P-gp (MDR1) was found to be 1.09. In addition, the Ki at BACE1 [1] was 30 nM. Further, the inhibition at 10 µM against BACE1 [2] was found to be 103%.

Consider `COc1cnc(C(=O)Nc2ccc(F)c([C@@]3(C)N=C(N)[C@@](C)(F)C[C@@H]3F)c2)cn1` [Compound 2, N-(3-((2R,3S,5S)-6-amino-3,5-difluoro-2,5-dimethyl-2,3,4,5-tetrahydropyridin-2-yl)-4-fluorophenyl)-5-methoxypyrazine-2-carboxamide], for which the efflux ratio at 60 min, 0.5 μM in the data set with P-gp (MDR1) worked out at 0.79. In addition, the Ki at BACE1 [1] was 26 nM. Further, the inhibition at 10 µM against BACE1 [2] amounted to 99%.

On to `C[C@@]1(F)C[C@H](F)[C@@](C)(c2cc(NC(=O)c3ccc(F)cn3)ccc2F)N=C1N` [Compound 4, N-(3-((2R,3S,5R)-6-amino-3,5-difluoro-2,5-dimethyl-2,3,4,5-tetrahydropyridin-2-yl)-4-fluorophenyl)-5-fluoropicolinamide], for which the efflux ratio at 60 min, 0.5 μM in the data set on P-gp (MDR1) was determined as 1.17. Also, at BACE1 [1], the Ki was 98 nM. The inhibition at 10 µM on BACE1 [2] is 101%.

As for `COc1cnc(C(=O)Nc2ccc(F)c([C@@]3(C)N=C(N)[C@](C)(F)C[C@@H]3F)c2)cn1` [Compound 5, N-(3-((2R,3S,5R)-6-amino-3,5-difluoro-2,5-dimethyl-2,3,4,5-tetrahydropyridin-2-yl)-4-fluorophenyl)-5-methoxypyrazine-2-carboxamide], the efflux ratio at 60 min, 0.5 μM in the data set with P-gp (MDR1) stood at 1.53. Also, on BACE1 [1], the Ki is 51 nM.

As for `Cc1nc(C(=O)Nc2ccc(F)c([C@@]3(C)N=C(N)[C@](C)(F)C[C@@H]3F)c2)co1` [Compound 6, N-(3-((2R,3S,5R)-6-amino-3,5-difluoro-2,5-dimethyl-2,3,4,5-tetrahydropyridin-2-yl)-4-fluorophenyl)-2-methyloxazole-4-carboxamide], in the data set with P-gp (MDR1), the efflux ratio at 60 min, 0.5 μM was determined as 1.1. In addition, the Ki at BACE1 [1] is 58 nM. For the same compound, the inhibition at 10 µM against BACE1 [2] was 101%.

`COc1ccc(C(=O)Nc2ccc(F)c([C@@]3(C)N=C(N)[C@](C)(F)C[C@@H]3F)c2)nc1` [Compound 7, N-(3-((2R,3S,5R)-6-amino-3,5-difluoro-2,5-dimethyl-2,3,4,5-tetrahydropyridin-2-yl)-4-fluorophenyl)-5-methoxypicolinamide]: in the data set on P-gp (MDR1), the efflux ratio at 60 min, 0.5 μM turned out to be 5.67. The Ki on BACE1 [1] was 39 nM. Further, the inhibition at 10 µM against BACE1 [2] is 102%.

On to `[2H]C([2H])([2H])Oc1ccc(C(=O)Nc2ccc(F)c([C@@]3(C)N=C(N)[C@](C)(F)C[C@@H]3F)c2)nc1` [Compound 8, N-(3-((2R,3S,5R)-6-amino-3,5-difluoro-2,5-dimethyl-2,3,4,5-tetrahydropyridin-2-yl)-4-fluorophenyl)-5-(methoxy-d3)picolinamide], for which the efflux ratio at 60 min, 0.5 μM in the data set with P-gp (MDR1) came out at 0.95. Also, the Ki on BACE1 [1] was 58 nM. Further, the inhibition at 10 µM on BACE1 [2] was 100%.

Turning to `C[C@@]1(F)C[C@H](F)[C@@](C)(c2cc(NC(=O)c3ccc(Cl)cn3)ccc2F)N=C1N` [Compound 9, N-(3-((2R,3S,5R)-6-amino-3,5-difluoro-2,5-dimethyl-2,3,4,5-tetrahydropyridin-2-yl)-4-fluorophenyl)-5-chloropicolinamide], the efflux ratio at 60 min, 0.5 μM in the data set on P-gp (MDR1) worked out at 1.31. Besides, the Ki at BACE1 [1] is 36 nM. Further, on BACE1 [2], the inhibition at 10 µM was 109%.

`Cn1ccnc1C(=O)Nc1ccc(F)c([C@@]2(C)N=C(N)[C@](C)(F)C[C@@H]2F)c1` [Compound 10, N-(3-((2R,3S,5R)-6-amino-3,5-difluoro-2,5-dimethyl-2,3,4,5-tetrahydropyridin-2-yl)-4-fluorophenyl)-1-methyl-1H-imidazole-2-carboxamide]: the Ki on BACE1 [1] is 820 nM. Besides, the inhibition at 10 µM against BACE1 [2] was found to be 115%.

Take `C[C@@]1(F)C[C@H](F)[C@@](C)(c2cc(NC(=O)c3cnc(C(F)(F)F)cn3)ccc2F)N=C1N` [Compound 11, N-(3-((2R,3S,5R)-6-amino-3,5-difluoro-2,5-dimethyl-2,3,4,5-tetrahydropyridin-2-yl)-4-fluorophenyl)-5-(trifluoromethyl)pyrazine-2-carboxamide]: at BACE1 [1], the Ki is 190 nM. The inhibition at 10 µM on BACE1 [2] stood at 104%.

As to `Cc1csc(C(=O)Nc2ccc(F)c([C@@]3(C)N=C(N)[C@](C)(F)C[C@@H]3F)c2)n1` [Compound 12, N-(3-((2R,3S,5R)-6-amino-3,5-difluoro-2,5-dimethyl-2,3,4,5-tetrahydropyridin-2-yl)-4-fluorophenyl)-4-methylthiazole-2-carboxamide], on BACE1 [1], the Ki is 99 nM. Besides, at BACE1 [2], the inhibition at 10 µM is 118%.

As to `C[C@@]1(F)C[C@H](F)[C@@](C)(c2cc(NC(=O)c3coc(C(F)F)n3)ccc2F)N=C1N` [Compound 13, N-(3-((2R,3S,5R)-6-amino-3,5-difluoro-2,5-dimethyl-2,3,4,5-tetrahydropyridin-2-yl)-4-fluorophenyl)-2-(difluoromethyl)oxazole-4-carboxamide], in the data set on P-gp (MDR1), the efflux ratio at 60 min, 0.5 μM was determined as 11.7. For the same compound, the Ki at BACE1 [1] was 62 nM. For the same compound, the inhibition at 10 µM on BACE1 [2] amounted to 108%.

Consider `C[C@@]1(F)C[C@H](F)[C@@](C)(c2cc(NC(=O)c3ccn(C(F)F)n3)ccc2F)N=C1N` [Compound 14, N-(3-((2R,3S,5R)-6-amino-3,5-difluoro-2,5-dimethyl-2,3,4,5-tetrahydropyridin-2-yl)-4-fluorophenyl)-1-(difluoromethyl)-1H-pyrazole-3-carboxamide], for which, in the data set with P-gp (MDR1), the efflux ratio at 60 min, 0.5 μM was found to be 15.8. Also, on BACE1 [1], the Ki is 45 nM. Further, the inhibition at 10 µM against BACE1 [2] is 112%.

For the compound `C[C@@]1(F)C[C@H](F)[C@@](C)(c2cc(NC(=O)c3cnc(C(F)F)cn3)ccc2F)N=C1N` [Compound 15, N-(3-((2R,3S,5R)-6-amino-3,5-difluoro-2,5-dimethyl-2,3,4,5-tetrahydropyridin-2-yl)-4-fluorophenyl)-5-(difluoromethyl)pyrazine-2-carboxamide], in the data set with P-gp (MDR1), the efflux ratio at 60 min, 0.5 μM came to 2.07. For the same compound, on BACE1 [1], the Ki is 100 nM. The inhibition at 10 µM on BACE1 [2] came out at 108%.

`C[C@@]1(F)C[C@H](F)[C@@](C)(c2cc(NC(=O)c3ccc(Cl)cc3)ccc2F)N=C1N` [Compound 16, N-(3-((2R,3S,5R)-6-amino-3,5-difluoro-2,5-dimethyl-2,3,4,5-tetrahydropyridin-2-yl)-4-fluorophenyl)-4-chlorobenzamide]: the efflux ratio at 60 min, 0.5 μM in the data set on P-gp (MDR1) was found to be 1.6. Also, the Ki at BACE1 [1] is 220 nM. Further, on BACE1 [2], the inhibition at 10 µM worked out at 103%.

In the case of `C[C@@]1(F)C[C@H](F)[C@@](C)(c2cc(NC(=O)c3ccc(C#N)cn3)ccc2F)N=C1N` [Compound 17, N-(3-((2R,3S,5R)-6-amino-3,5-difluoro-2,5-dimethyl-2,3,4,5-tetrahydropyridin-2-yl)-4-fluorophenyl)-5-cyanopicolinamide], the efflux ratio at 60 min, 0.5 μM with P-gp (MDR1) was found to be 0.45. The Ki at BACE1 [1] is 39 nM.

On to `C[C@]1(F)C[C@H](F)[C@@](C)(c2cc(NC(=O)c3ccc(Br)cn3)ccc2F)N=C1N` [Compound 24, N-(3-((2R,3S,5S)-6-amino-3,5-difluoro-2,5-dimethyl-2,3,4,5-tetrahydropyridin-2-yl)-4-fluorophenyl)-5-bromopicolinamide], for which, on BACE1 [1], the Ki was 4.3 nM. Besides, the inhibition at 10 µM on BACE1 [2] was determined as 103%.
